From patent publication US20170016915A1, “SCREENING TARGETS AND COMPOSITIONS AND METHODS FOR TREATMENT OF CILIOPATHY DISORDERS” (Duke University, priority 2014, published 2017)

Legend:
[1] = tested on: bbs4, bbs1 and ofd1 morphant zebrafish embryos; assay: Convergent extension (CE) and somite defects in morphant zebrafish embryos, coinjection; assay type: in vivo; details: for rescue of defective CE phenotypes, somitic defects, and persistent her4 expression: coinjection
Description: (§1) Morpholinos against bbs1 ([NT] ID NO: 13), bbs4 ([NT] ID NO: 14), and ofd1 ([NT] ID NO: 15) were purchased from Gene Tools, LLC. Human RPN10, RPN13, and RPT6 mRNA were in vitro transcribed with a mMESSAGE mMACHINE SP6 Kit (Ambion). SFN was dissolved in DMSO (Sigma-Aldrich) at a stock concentration of 1 M and further diluted in water to 10 mM. The morpholino and mRNA or SFN were mixed, and a volume of 0.5 nl was microinjected.

[2] = tested on: her4 expression (Notch target) in bbs4 morphant zebrafish embryos; assay: Whole-mount RNA in situ hybridization of her4 in morphant zebrafish; assay type: in vivo; details: bbs4 morphants, coinjection, 4.5 dpf
Description: as §1, with “microinjected. Zebrafish embryos were fixed overnight in 4% PFA at 4° C. Residual pigment was removed by bleaching with 3% H2O2/0.5% KOH.” for “microinjected.”

[3] = tested on: IκBβ; details: BBS4-, BBS1-, or OFD-suppressant cells
Description: (§2) Transfected cells and mouse tissues were lysed in modified RIPA buffer [150 mM sodium chloride, 50 mM Tris-HCl, pH7.4, 1% nonidet P-40, 0.1% sodium deoxycholate, 1 mM EDTA] with 1× proteasome inhibitor (Roche) and centrifuged at 4° C. for 15 minutes. Protein concentration was measured by Lowry assay using the DC Protein Assay Kit (Bio-Rad) on a DU 530 Life Science UV/Vis Spectrophotometer (Beckman Coulter). Total protein in each sample was separated by SDS-PAGE on 4% to 15% Mini-PROTEAN TGX Precast Gel (Bio-Rad) with a Spectra Multicolor Broad Range Protein Ladder (Fermentas) and transferred to an Immun-Blot PVDF Membrane (Bio-Rad). […] Densitometric analysis was performed with Image Lab (Bio-Rad), Quantity One (Bio-Rad), or ImageJ 1.44p (NIH) software. […]

[4] = tested on: β-catenin; details: cells depleted of BBS4, relative to vehicle-treated cells; 10 μM SFN
Description: as §2

[5] = tested on: NF-κB signaling; details: TNF-α stimulated cells with pSuperBBS4, pSuperBBS1 or pSuperOFD1; SFN 6 hours
Description: (§3) HEK-293 or HEK-293-FT cells and human dermal fibroblasts were grown in DMEM (Invitrogen) containing 10% FBS (Invitrogen) and 2 mM L-glutamine (Invitrogen), hTERT-RPE1 cells in DMEM and Ham's F-12 Nutrient 1:1 mixture (DMEM/F-12; Invitrogen) with 10% FBS and 2 mM L-glutamine.

[6] = tested on: PSMB5, PSMB6, and PSMB7; details: upon treatment with sulforaphane (ref. 36); cited from earlier work
[7] = tested on: GLI2FL, GLI3FL, SUFU and GLI3R in T8-derived Ofd1^KO neurons; details: 10 μM SFN
Description: Transfected cells and mouse tissues were lysed in modified RIPA buffer [150 mM sodium chloride, 50 mM Tris-HCl, pH7.4, 1% nonidet P-40, 0.1% sodium deoxycholate, 1 mM EDTA] with 1× proteasome inhibitor (Roche) and centrifuged at 4° C. for 15 minutes. Protein concentration was measured by Lowry assay using the DC Protein Assay Kit (Bio-Rad) on a DU 530 Life Science UV/Vis Spectrophotometer (Beckman Coulter). Total protein in each sample was separated by SDS-PAGE on 4% to 15% Mini-PROTEAN TGX Precast Gel (Bio-Rad) with a Spectra Multicolor Broad Range Protein Ladder (Fermentas) and transferred to an Immun-Blot PVDF Membrane (Bio-Rad). […] Densitometric analysis was performed with Image Lab (Bio-Rad), Quantity One (Bio-Rad), or ImageJ 1.44p (NIH) software.
as §3

With `C[S@@+]([O-])CCCCN=C=S` [SFN, 1-isothiocyanato-4(R)-methylsulfinylbutane] the “rescue of defective CE phenotypes, somitic defects, and persistent her4 expression” value ([1]; bbs1 morphants) was “robust rescue”, the “bbs4 morphants with CE and somitic defects” value ([1]; coinjection with bbs4 morpholino, blind scoring at 9±1 ss) was “significant reduction” and the “rescue of defective CE phenotypes, somitic defects, and persistent her4 expression” value ([1]; ofd1 morphants) was “robust rescue”. For the same compound, the “phenotype after injection of the substance alone” value ([1]; zebrafish embryos, no morpholino) was “did not give rise to any obvious phenotype”, the “ectopic expression of her4 in neural structures” value [2] was “ameliorated” and the “accumulation of GFP-tagged IκBβ” value [3] was “ameliorated”. The β-catenin protein levels [4] was “reduction”, the “NF-κB activity (3X-κB-L luciferase reporter)” value [5] was “restored” and the “expression levels of PSMB5, PSMB6, and PSMB7 and corresponding peptidase activities” value [6] was “increase”. For the same compound, the GLI3R protein levels [7] was “reduced” and the “accumulation of GLI3FL, GLI2FL, and SUFU” value [7] was “ameliorated”.
